Reference: US6953800B2, “Use of selective antagonists of the α1B-adrenergic receptor for improvement of sexual dysfunction” (Recordati S.A. Chemical, priority 1999, dated 2005)
Counter-ions that a name gives are not always drawn.

Legend:
human α1d-adrenoceptor = target: T1, human α1d-adrenoceptor (Homo sapiens, UniProt P25100); assay: [3H]Prazosin binding, cloned human α1d-adrenoceptor in CHO cell membranes; settings: read-out: Affinity (Ki) α1d, human cloned receptors
T1 construct: expressed in transfected cells
T1 sequence (P25100 1-572): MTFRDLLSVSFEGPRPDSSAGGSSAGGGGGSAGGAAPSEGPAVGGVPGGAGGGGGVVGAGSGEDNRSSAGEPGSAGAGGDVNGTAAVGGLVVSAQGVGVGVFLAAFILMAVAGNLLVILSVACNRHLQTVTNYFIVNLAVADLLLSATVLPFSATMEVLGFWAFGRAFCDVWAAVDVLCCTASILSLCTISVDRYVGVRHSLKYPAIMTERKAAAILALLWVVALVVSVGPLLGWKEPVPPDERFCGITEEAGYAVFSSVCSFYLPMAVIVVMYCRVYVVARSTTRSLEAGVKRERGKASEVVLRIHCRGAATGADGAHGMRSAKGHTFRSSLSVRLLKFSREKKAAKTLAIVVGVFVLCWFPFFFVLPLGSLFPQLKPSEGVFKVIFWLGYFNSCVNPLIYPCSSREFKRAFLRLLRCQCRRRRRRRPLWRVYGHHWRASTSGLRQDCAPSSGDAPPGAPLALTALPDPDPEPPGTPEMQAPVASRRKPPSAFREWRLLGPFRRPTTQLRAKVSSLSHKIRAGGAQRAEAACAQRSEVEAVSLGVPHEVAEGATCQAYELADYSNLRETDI
Method: (§1) Binding to cloned human α1-adrenoceptor subtypes was performed in membranes from CHO cells (Chinese hamster ovary cells) transfected by electroporation with DNA expressing the gene encoding each α1-adrenoceptor subtype. […] The incubation was stopped by addition of ice-cold Tris buffer and rapid filtration through 0.2% polyethyleneimine-pretreated Whatman GF/B or Schleicher & Schuell GF52 filters.
(§2) Data are expressed as mean Ki. All patents and other references cited herein are incorporated by reference in their entirety.

human α1b-adrenoceptor = target: T2, human α1b-adrenoceptor (Homo sapiens, UniProt P35368); assay: [3H]Prazosin binding, cloned human α1b-adrenoceptor in CHO cell membranes
T2 construct: expressed in transfected cells
T2 sequence (P35368 1-520): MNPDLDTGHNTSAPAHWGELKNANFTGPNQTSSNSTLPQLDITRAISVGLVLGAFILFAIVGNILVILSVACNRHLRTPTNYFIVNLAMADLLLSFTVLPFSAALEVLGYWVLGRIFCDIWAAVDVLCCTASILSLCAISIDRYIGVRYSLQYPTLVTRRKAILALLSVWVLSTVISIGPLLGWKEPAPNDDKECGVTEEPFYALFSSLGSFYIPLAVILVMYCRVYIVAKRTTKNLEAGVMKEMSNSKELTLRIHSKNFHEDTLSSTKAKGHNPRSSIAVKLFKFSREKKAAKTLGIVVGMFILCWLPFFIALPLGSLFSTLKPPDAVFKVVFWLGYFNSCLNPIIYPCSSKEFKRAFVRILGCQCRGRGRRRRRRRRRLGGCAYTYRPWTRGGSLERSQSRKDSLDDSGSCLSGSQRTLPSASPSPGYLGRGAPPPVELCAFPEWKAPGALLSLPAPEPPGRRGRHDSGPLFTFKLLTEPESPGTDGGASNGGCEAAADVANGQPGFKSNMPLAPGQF
Method: as §1, §2

human α1a-adrenoceptor = target: T3, human α1a-adrenoceptor (Homo sapiens, UniProt P35348); assay: biochemical
T3 sequence (P35348 1-466): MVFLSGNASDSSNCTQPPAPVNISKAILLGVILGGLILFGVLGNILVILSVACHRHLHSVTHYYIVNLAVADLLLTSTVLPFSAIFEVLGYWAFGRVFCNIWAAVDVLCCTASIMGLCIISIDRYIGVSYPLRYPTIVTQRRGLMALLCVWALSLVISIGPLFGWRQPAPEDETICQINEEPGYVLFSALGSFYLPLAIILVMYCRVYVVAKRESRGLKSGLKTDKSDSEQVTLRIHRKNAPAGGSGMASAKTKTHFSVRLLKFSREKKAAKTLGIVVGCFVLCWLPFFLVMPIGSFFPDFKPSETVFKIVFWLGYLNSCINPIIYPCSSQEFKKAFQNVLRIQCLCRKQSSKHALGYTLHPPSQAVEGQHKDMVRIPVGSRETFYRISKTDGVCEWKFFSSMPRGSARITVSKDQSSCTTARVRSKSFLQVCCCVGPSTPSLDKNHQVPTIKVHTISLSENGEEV

hamster α1b-adrenoceptor = target: T4, hamster α1b-adrenoceptor (Mesocricetus auratus, UniProt P18841); assay: [3H]Prazosin binding, hamster α1b-adrenoceptor in COS-7 cell membranes; settings: COS-7 membranes, read-out: Affinity (Ki) α1b, animal cloned receptors
T4 construct: expressed in transfected cells; host or cells: COS-7 cells (transient), membranes
T4 sequence (P18841 1-515): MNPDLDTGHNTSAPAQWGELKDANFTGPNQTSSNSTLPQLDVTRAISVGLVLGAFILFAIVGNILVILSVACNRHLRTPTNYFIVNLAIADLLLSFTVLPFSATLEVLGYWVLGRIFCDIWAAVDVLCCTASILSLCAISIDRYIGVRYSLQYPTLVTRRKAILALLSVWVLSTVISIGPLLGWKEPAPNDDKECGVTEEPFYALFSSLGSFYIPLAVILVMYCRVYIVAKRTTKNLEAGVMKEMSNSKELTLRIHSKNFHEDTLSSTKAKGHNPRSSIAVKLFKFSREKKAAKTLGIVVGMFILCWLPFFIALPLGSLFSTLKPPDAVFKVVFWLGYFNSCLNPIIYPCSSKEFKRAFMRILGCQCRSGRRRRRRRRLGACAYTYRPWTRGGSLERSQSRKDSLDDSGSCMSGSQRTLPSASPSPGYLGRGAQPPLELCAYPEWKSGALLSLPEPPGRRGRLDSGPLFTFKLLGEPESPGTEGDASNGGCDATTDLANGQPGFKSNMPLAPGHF
Method: The incubation was stopped by addition of ice-cold Tris buffer and rapid filtration through 0.2% polyethyleneimine pretreated Whatman GF/B or Schleicher & Schuell GF52 filters.
as §2

anaesthetised dogs = assay: Intracavernous and blood pressure recording in dogs
Method: Male beagle dogs were anaesthetised with pentobarbital sodium (i.v. Nembutal, 35 mg/kg for induction and 4 mg/kg/h for maintenance) and intubated with an endotracheal cuffed tube to facilitate free ventilation. A collateral of the left femoral vein was cannulated with a PE catheter for infusion of the anaesthetic. Systemic BP was monitored via a Mikro-tip 6F (Millar Instruments) pressure transducer introduced into the aortic arch through the right common carotid artery. ICP was measured by means of a 20-gauge needle placed into the left or right corpus cavernosum and the same needle was used for intracavernous injection of the drugs. The needle was attached to a catheter filled with heparinized saline (25 IU/mL). […] The compounds to be tested were injected intracavernously in a volume of 0.5 ml and, after each injection, the needle was flushed with 0.5 ml of saline. The vehicles for compound dissolution were tested before the first dose of each drug. The compounds were administered in a cumulative way, with a 30-minute interval between doses. ICP (mmHg) was measured at the peak effect after the administration of the compounds. The duration of tumescence (DT, min) was measured from the beginning of the rise of ICP over its basal value up to the return to baseline. The systolic blood pressure and diastolic blood pressure (mmHg) were measured at the peak effect after the administration of compounds, in order to evaluate the effects of the compounds on BP independently from the effects on ICP. Moreover, the systolic blood pressure was measured at the time of maximal ICP value after intracavernous injection, to evaluate the ICP/BP ratios. […] The data were reported as mean ±s.e. of the mean, or percent variation (±s.e.) of the basal values.

## COc1cc2nc(N3CCN(C(=O)c4ccco4)[C@@H]4CCCC[C@@H]43)nc(N)c2cc1OC [Compound B, 4-Amino-6,7-dimethoxy-2-[(4aR,8aS)-4-(2-furoyl)-cis-octahydro-1-quinoxalinyl]-quinazoline hydrochloride]
Human α1d-adrenoceptor
  Ki: 2.63 nM
Human α1b-adrenoceptor
  Ki: 0.17 nM
Human α1a-adrenoceptor
  Ki: 9.43 nM
Hamster α1b-adrenoceptor
  Ki: 0.68 nM
Anaesthetised dogs; 3 μg/kg intracavernous
  DBP: 110.7 ± 5.5 mmHg
  DT (duration of tumescence): 2.5 ± 0.9 min
  ICP: 36.7 ± 2.2 mmHg
  SBP: 151.7 ± 7.3 mmHg
  SBPICP (SBP at the time of maximal ICP value): 153.3 ± 7.0 mmHg
  increase of ICP in comparison with basal ICP values: 13.7 mmHg
Anaesthetised dogs; 30 μg/kg intracavernous
  DBP: 107.3 ± 4.2 mmHg
  DT (duration of tumescence): 4.3 ± 2.0 min
  ICP: 49.3 ± 14.2 mmHg
  SBP: 150.0 ± 5.9 mmHg
  SBPICP (SBP at the time of maximal ICP value): 151.0 ± 5.7 mmHg
Anaesthetised dogs; 100 μg/kg intracavernous
  DBP: 104.3 ± 4.2 mmHg
  DT (duration of tumescence): 4.4 ± 1.6 min
  ICP: 52.7 ± 13.0 mmHg
  SBP: 146.0 ± 4.8 mmHg
  SBPICP (SBP at the time of maximal ICP value): 147.3 ± 5.0 mmHg
Anaesthetised dogs; 300 μg/kg intracavernous
  DBP: 98.0 ± 6.9 mmHg
  DT (duration of tumescence): 3.5 ± 1.1 min
  ICP: 57.3 ± 11.4 mmHg
  SBP: 139.0 ± 6.6 mmHg
  SBPICP (SBP at the time of maximal ICP value): 147.3 ± 5.7 mmHg
Anaesthetised dogs; 1000 μg/kg (1000 μg given for prazosin, phentolamine) intracavernous
  increase of ICP in comparison with basal ICP values: 73.3 mmHg
Anaesthetised dogs; 1000 μg/kg intracavernous
  DBP: 81.0 ± 4.3 mmHg
  ICP: 93.3 ± 6.2 mmHg
  SBP: 121.7 ± 4.9 mmHg
  SBPICP (SBP at the time of maximal ICP value): 135.7 ± 6.8 mmHg
Anaesthetised dogs; Compound B at the highest dose tested
  duration of action compared with reference compounds: higher than that of the reference compounds tested
Anaesthetised dogs; highest dose 1000 μg/kg
  hypotension on diastolic blood pressure (change): −31 mmHg
Anaesthetised dogs; intracavernous injection
  effect on ICP (in words): increased ICP in a dose-dependent way
